Laboratory results from patent US5605921A, “Triazole derivatives and salts thereof, and antifungal agent containing the same” (Toyama Chemical Co., Ltd., priority 1991, dated 1997).
Values after ≈ are worked out from the molar mass of the structure shown.

Experiments:
Candida albicans ON28 [1] = assay: Therapeutic effect, oral, mice infected with Candida albicans ON28 (3), Table 2c; type: in vivo, ICR strain male mice infected with Candida albicans ON28; settings: average survival days of Ketoconazole taken as 100; Candida albicans 5.7×10^6 cells/mouse i.v.; 0.1 mg/mouse oral, 2 hours after infection; 10 days observation; 10 mice
Procedure: (3) The therapeutic effects of the present compounds, when they were administered orally, were examined using mice infected with Candida albicans ON28.
Candida albicans ON28 was injected in a proportion of 5.7×10^6 cells/mouse to a group of 10 ICR strain male mice (weight: 19-21 g) intravenously at the tails, whereby the mice were infected with the fungi. […] The relative therapeutic index of the test compound was determined from the average survival days.
The results are shown in Table 2c, in which the relative therapeutic index of each test compound is a value calculated by taking the average survival days Ketoconazole as 100.

[2] = test system: Aspergillus fumigatus IFO8868; assay: Minimum inhibitory concentration (MIC) against Aspergillus fumigatus IFO8868; type: cell-based; settings: IFO8868, 72 h, TC broth medium, 10^4 spores/ml, 37° C., 3 days
Procedure: (§1) MIC was determined in accordance with the method of M. S. Marriott [25th Interscience Conference on Antimicrobial Agents and Chemotherapy, p. 243 (1985)].
(§2) Candida albicans ON28 was cultured in a sabouraud dextrose agar medium containing 10 g of neopeptone, 20 g of glucose and 15 g of agar per liter, at 30° C. for 1-2 days. The yeast cells were suspended in sterile distilled water. Separately, Aspergillus fumigatus IFO8868 was cultured in a potato dextrose agar medium (manufactured by Nissui Pharmaceutical Co., Ltd.) at 30° C. until the conidia were formed abundantly. The formed conidia were suspended in a sterile physiological saline containing 0.1% of Tween 80. Each of the Candida albicans suspension and the Aspergillus fumigatus suspension was inoculated into a TC broth medium (containing 1.17 g of an yeast carbon base, 0.25 g of ammonium sulfate, 2.0 ml of a 50-fold concentrate of L-glutamic acid-containing MEM amino acid, 20 ml of a 0.5M phosphate buffer of pH 7.5 and 1.33 ml of 7.5% sodium hydrogencarbonate per 100 ml) containing a test compound, so that the final fungal amount became 10^4 spores/ml. Then, culture was conducted at 37° C. for 3 days. Thereafter, the growth of fungi was examined. The minimum concentration of test compound at which the growth of fungi had been inhibited, was taken as MIC (μg/ml).

Candida albicans ON28 [3] = assay: Minimum inhibitory concentration (MIC) against Candida albicans ON28; type: cell-based; settings: ON28, 72 h, TC broth medium, 10^4 spores/ml, 37° C., 3 days
Procedure: as §1, §2

[4] = test system: Aspergillus fumigatus IFO8868; assay: Therapeutic effect, oral, mice infected with Aspergillus fumigatus IFO8868 (4), Table 2d; type: in vivo; settings: average survival days of Ketoconazole taken as 100; Aspergillus fumigatus 5.8×10^6 cells/mouse i.v.; 0.8 mg/mouse oral, 2 hours after infection and once daily for six consecutive days; 10 days observation; 10 mice
Procedure: (4) The therapeutic effects of the present compounds, when they were administered orally, were examined using mice infected with Aspergillus fumigatus IFO8868.
Aspergillus fumigatus IFO8868 was injected in a proportion of 5.8×10^6 cells/mouse to a group of 10 ICR strain male mice (weight: 19-21 g) intravenously at the tails, whereby the mice were infected with the fungi. […] The relative therapeutic index of the test compound was determined from the average survival days.
The results are shown in Table 2d, in which the relative therapeutic index of each test compound is a value calculated by taking the average survival days of Ketoconazole as 100.

SMILES | Relative therapeutic index (Candida albicans ON28 [1]) | MIC [2] [mg/L] | MIC (Candida albicans ON28 [3]) [mg/L] | Relative therapeutic index [4]
CNC(=O)C(F)(F)C(O)(Cn1cncn1)c1ccc(F)cc1F (single isomer, unassigned) [Example 143] | 450 | 25 (≈ 75.2 µM) | 0.2 (≈ 0.602 µM) | 242
CCNC(=O)C(F)(F)C(O)(Cn1cncn1)c1ccc(F)cc1F (single isomer, unassigned) [Example 144] |  | 6.25 (≈ 18 µM) | 0.1 (≈ 0.289 µM) | 
O=C(NC1CC1)C(F)(F)C(O)(Cn1cncn1)c1ccc(F)cc1F (single isomer, unassigned) [Example 145] | 409 | 12.5 (≈ 34.9 µM) | 0.1 (≈ 0.279 µM) | 353
CNC(=O)C(F)(F)C(O)(Cn1cncn1)c1ccc(F)cc1Cl (single isomer, unassigned) [Example 147] | 414 | 6.25 (≈ 17.9 µM) | 0.1 (≈ 0.287 µM) | 526
O=C(NC1CC1)C(F)(F)C(O)(Cn1cncn1)c1ccc(F)cc1Cl (single isomer, unassigned) [Example 148] |  | 3.13 (≈ 8.35 µM) | 0.1 (≈ 0.267 µM) | 
O=C(NC1CC1)C(F)(F)C(O)(Cn1cncn1)c1ccccc1Cl (stereo not shown) [Example 3] |  | 12.5 (≈ 35 µM) | 0.39 (≈ 1.09 µM) | 
CC1(NC(=O)C(F)(F)C(O)(Cn2cncn2)c2ccc(F)cc2F)CC1 (stereo not shown) [Example 4] |  | 50 (≈ 134 µM) | 0.1 (≈ 0.269 µM) | 
O=C(NC1(c2ccc(Cl)cc2)CC1)C(F)(F)C(O)(Cn1cncn1)c1ccc(F)cc1F (stereo not shown) [Example 5] |  | 12.5 (≈ 26.7 µM) | ≤ 0.05 | 
O=C(NC1CC1)C(F)(F)C(O)(Cn1cncn1)c1ccccc1F (stereo not shown) [Example 8, N-cyclopropyl-2,2-difluoro-3-(2-fluorophenyl)-3-hydroxy-4-(1H-1,2,4-triazol-1-yl)butanamide] |  | 25 (≈ 73.5 µM) | 0.78 (≈ 2.29 µM) | 
CNC(=O)C(F)(F)C(O)(Cn1cncn1)c1ccc(F)cc1F (stereo not shown) [Example 11] | 423 | 100 (≈ 301 µM) | 0.2 (≈ 0.602 µM) | 174
CCCNC(=O)C(F)(F)C(O)(Cn1cncn1)c1ccc(F)cc1F (stereo not shown) [Example 16] |  | 25 (≈ 69.4 µM) | ≤ 0.05 | 
C=CCNC(=O)C(F)(F)C(O)(Cn1cncn1)c1ccc(F)cc1F (stereo not shown) [Example 17] |  | 12.5 (≈ 34.9 µM) | 0.1 (≈ 0.279 µM) | 
O=C(NC1CCCC1)C(F)(F)C(O)(Cn1cncn1)c1ccc(F)cc1F (stereo not shown) [Example 20] |  | 100 (≈ 259 µM) | ≤ 0.05 | 
O=C(NC1CCCCC1)C(F)(F)C(O)(Cn1cncn1)c1ccc(F)cc1F (stereo not shown) [Example 21] |  | 100 (≈ 250 µM) | ≤ 0.05 | 
O=C(NCc1ccc(Cl)cc1)C(F)(F)C(O)(Cn1cncn1)c1ccc(F)cc1F (stereo not shown) [Example 22] |  | 12.5 (≈ 28.2 µM) | ≤ 0.05 | 
CC(C)NC(=O)C(F)(F)C(O)(Cn1cncn1)c1ccc(F)cc1F (stereo not shown) [Example 33] |  | 50 (≈ 139 µM) | 0.2 (≈ 0.555 µM) | 
CC(C)CNC(=O)C(F)(F)C(O)(Cn1cncn1)c1ccc(F)cc1F (stereo not shown) [Example 35] |  | 25 (≈ 66.8 µM) | ≤ 0.05 | 
CC1CN(C(=O)C(F)(F)C(O)(Cn2cncn2)c2ccc(F)cc2F)CC(C)O1 (stereo not shown) [Example 39, 4-[3-(2,4-difluorophenyl)-2,2-difluoro-3-hydroxy-4-(1H-1,2,4-triazol-1-yl)butanoyl]-2,6-dimethylmorpholine] |  | 100 (≈ 240 µM) | 6.25 (≈ 15 µM) | 
O=C(Nc1ccc(Cl)cc1)C(F)(F)C(O)(Cn1cncn1)c1ccc(F)cc1F (stereo not shown) [Example 42, N-(4-chlorophenyl)-3-(2,4-difluorophenyl)-2,2-difluoro-3-hydroxy-4-(1H-1,2,4-triazol-1-yl)butanamide] |  | 50 (≈ 117 µM) | ≤ 0.05 | 
Cc1ccc(NC(=O)C(F)(F)C(O)(Cn2cncn2)c2ccc(F)cc2F)cc1 (stereo not shown) [Example 43] |  | 25 (≈ 61.2 µM) | ≤ 0.05 | 

SMILES | Relative therapeutic index (Candida albicans ON28 [1]) | MIC [2] [mg/L] | MIC (Candida albicans ON28 [3]) [mg/L] | Relative therapeutic index [4]
Cc1ccc(NC(=O)C(F)(F)C(O)(Cn2cncn2)c2ccc(F)cc2F)c(C)c1 (stereo not shown) [Example 44] |  | 1.56 (≈ 3.69 µM) | ≤ 0.05 | 
COc1ccccc1NC(=O)C(F)(F)C(O)(Cn1cncn1)c1ccc(F)cc1F (stereo not shown) [Example 45] |  | 50 (≈ 118 µM) | ≤ 0.05 | 
CC(C)(C)NC(=O)C(F)(F)C(O)(Cn1cncn1)c1ccc(F)cc1F (stereo not shown) [Example 51] |  | 12.5 (≈ 33.4 µM) | 0.1 (≈ 0.267 µM) | 
NC(=O)C(F)(Cc1ccccc1)C(O)(Cn1cncn1)c1ccc(F)cc1F (stereo not shown) [Example 56] |  | 100 (≈ 256 µM) | 0.39 (≈ 0.999 µM) | 
CCNC(=O)C(F)(F)C(O)(Cn1cncn1)c1ccccc1 (stereo not shown) [Example 69] |  | 50 (≈ 161 µM) | 0.39 (≈ 1.26 µM) | 
CNC(=O)C(F)(F)C(O)(Cn1cncn1)c1ccccc1F (stereo not shown) [Example 72] |  | 50 (≈ 159 µM) | 0.39 (≈ 1.24 µM) | 
CCNC(=O)C(F)(F)C(O)(Cn1cncn1)c1ccccc1F (stereo not shown) [Example 73] |  | 25 (≈ 76.2 µM) | 0.39 (≈ 1.19 µM) | 
CNC(=O)C(F)(F)C(O)(Cn1cncn1)c1ccccc1Cl (stereo not shown) [Example 74] |  | 12.5 (≈ 37.8 µM) | 0.78 (≈ 2.36 µM) | 
CCNC(=O)C(F)(F)C(O)(Cn1cncn1)c1ccccc1Cl (stereo not shown) [Example 75] |  | 6.25 (≈ 18.1 µM) | 0.2 (≈ 0.58 µM) | 
CNC(=O)C(F)(F)C(O)(Cn1cncn1)c1ccc(F)cc1Cl (stereo not shown) [Example 80] | 455 | 12.5 (≈ 35.8 µM) | 0.39 (≈ 1.12 µM) | 416
CCNC(=O)C(F)(F)C(O)(Cn1cncn1)c1ccc(F)cc1Cl (stereo not shown) [Example 81] |  | 3.13 (≈ 8.63 µM) | 0.1 (≈ 0.276 µM) | 
CCNC(=O)C(F)(F)C(O)(Cn1cncn1)c1ccc(Cl)cc1F (stereo not shown) [Example 83] |  | 25 (≈ 68.9 µM) | 0.1 (≈ 0.276 µM) | 
O=C(NC1CC1)C(F)(F)C(O)(Cn1cncn1)c1ccc(Cl)cc1Cl (stereo not shown) [Example 85] |  | 12.5 (≈ 32 µM) | 0.1 (≈ 0.256 µM) | 
CCNC(=O)C(F)(F)C(O)(Cn1cncn1)c1cc(F)c(F)cc1F (stereo not shown) [Example 88] |  | 50 (≈ 137 µM) | 0.2 (≈ 0.549 µM) | 
CCCCNC(=O)C(F)(F)C(O)(Cn1cncn1)c1ccc(F)cc1F (stereo not shown) [Example 114] |  | 12.5 (≈ 33.4 µM) | 0.05 (≈ 0.134 µM) | 
CCNC(=O)C(F)(F)C(O)(Cn1cncn1)c1cc(F)ccc1F (stereo not shown) [Example 117] |  | 25 (≈ 72.2 µM) | 0.39 (≈ 1.13 µM) | 
O=C(Nc1ccc(C(F)(F)F)cc1)C(F)(F)C(O)(Cn1cncn1)c1ccc(F)cc1F (stereo not shown) [Example 136] |  | 12.5 (≈ 27 µM) | 0.025 (≈ 0.0541 µM) | 
N#CCc1ccc(NC(=O)C(F)(F)C(O)(Cn2cncn2)c2ccc(F)cc2F)cc1 (stereo not shown) [Example 138] |  | 12.5 (≈ 28.8 µM) | 0.1 (≈ 0.231 µM) | 
COc1ccc(NC(=O)C(F)(F)C(O)(Cn2cncn2)c2ccc(F)cc2F)cc1 (stereo not shown) [Example 139] |  | 12.5 (≈ 29.5 µM) | 0.05 (≈ 0.118 µM) | 
